Residues, ends and D or L forms follow the SMILES beside them. *: point of attachment. Cbz = O=C(OCc1ccccc1)*

This is an account of results in US20070213312A1, “Hif-1 Inhibitors and Methods of Use Thereof” (priority 2003, published 2007).

Test [1] concerns HIF-1α. Put plainly: HIF-1α detection in cells exposed to DBM plus metals (summary statements). Particulars: cells exposed to DBM plus the metal; HEK 293 and HT144 for Zn^2+. It counts as cell-based, human. From the text:
In subsequent studies, similar data has been found for HEK 293 human embryonic kidney cells and HT144 melanoma cells treated with either DBM or Zn^2+. […] This finding appears to be unique to the combination of DBM with Zn^2+ since it was not observed in cells exposed to DBM plus other metals such as Fe^3+, Co^2+, Cd^2+, and Ni^2+. Furthermore, this unexpected reversal of the independent effects of DBM and Zn^2+ was not blocked by hypoxia. These observations are counterintuitive since inhibitors of HIF P4H should impede degradation of HIF-1α. Also, these two HIF P4H inhibitors appear to work in concert under inhibitory conditions to down-regulate HIF-1α with little effect on HIF-1α mRNA levels.
Basal levels of HIF-1α are low in cells exposed to ambient oxygen, yet under these conditions both DBM and Zn^2+ stabilize HIF-1α and cause the accumulation of HIF-1α protein (FIG. 15). It has been shown that this stabilizing effect on HIF-1α was itself reversed by the concomitant addition of Zn^2+ to DBM under ambient oxygen. […] This destabilizing effect appears unique to the combination of DBM plus Zn^2+ since it was not observed with other metals known to form chelates with DBM such as Fe^3+, Co^2+, Cd^2+ and Ni^2+. […] Though assessment of downstream effectors of HIF-1α (e.g., VEGF) was not included in the preliminary data, the effects of DBM and cobalt on VEGF in LNCaP human prostate cancer cells have been previously reported.

In test [2] the test system is HIF-1αZ. Particulars: cited from earlier work.
Test [3] relates to HIF-1α. The test can be described thus: Western blot analysis of HIF-1α in HEK 293 cells under ambient oxygen (normoxia). In kind it is cell-based, human. To be noted: HEK 293, ambient oxygen; for HIF-1α levels by Western blot: 1 hr, DBM 100 μM, Zn^2+ 25 μM to 100 μM, alone or combined; for HIF-1α by Western blot: agent(s) without further addition; for HIF-1α by Western blot in the presence of proteosome inhibitor MG-132: MG-132 added to the agent(s). On the procedure: The first unexpected finding was that the combination of DBM plus Zn^2+ reversed the induced stabilization of HIF-1α observed when the cells were exposed to either DBM or Zn^2+ alone under normoxic conditions (FIG. 15). […] HIF-1α was not detected at baseline by Western blot (FIG. 15, lane 1).
Proteosomal degradation of HIF-1α was assessed in HEK 293 embryonic kidney cells treated with DBM alone, Zn^2+ alone or the combination under ambient oxygen in the presence or absence of the proteosome inhibitor MG-132 (FIG. 18). […] (FIG. 18, lane 5). […] The HIF-1α isoforms are more clearly resolved on the gel from FIG. 18 than FIG. 15. This may be due to differences in the time the gels were run.

Test [4] concerns HIF-1α. The test can be described thus: Western blot analysis of HIF-1α in HT144 melanoma cells under hypoxia (1% O2). It counts as cell-based, human. Particulars: for HIF-1α levels by Western blot: HT 144 melanoma cells, 2 hours under 1% O2. On the procedure: (§1) HT 144 melanoma cells (FIG. 16 (A)) and HEK 293 embryonic kidney cells (FIG. 16 (B)) were incubated for 2 hours under 1% O2. HIF-1α was detected by Western blot at baseline ([…] lane 1).

For test [5], the system named is HIF-1α mRNA. Put plainly: Semiquantitative PCR (RT-PCR) of HIF-1α mRNA in HEK 293 cells under normoxia. It counts as cell-based, human. Particulars: HEK 293, normoxia, 2 hours, serum free media. On the procedure: The effects of DBM alone, Zn^2+ alone and DBM plus Zn^2+ on HIF-1α mRNA levels were assessed by semiquantitative PCR in extracts of HEK 293 kidney cells under normoxia for 2 hours in serum free media (FIG. 17). […] HIF-1αZ mRNA levels were not found to be increased (data not shown).

The subject of test [6] is kidney cancer. To be noted: patients with metastatic disease, high doses; cited from earlier work.
The test system of test [7] is HIF-1α. The test can be described thus: Western blot analysis of HIF-1α in HEK 293 cells under hypoxia (1% O2). It counts as cell-based, human. Particulars: 2 hours under 1% O2, metal added together with DBM. On the procedure:
as §1
(In general: In western blotting, separated proteins are transferred to a membrane and probed.)

Test [8] deals with HIF-1α. Put plainly: Western blot analysis of HIF-1α in VHL (−/−) RCC-4 renal cell carcinoma cells under normoxia. It counts as cell-based, human. Particulars: RCC-4 VHL (−/−), normoxic conditions; MG-132 for 1 hour. From the text: As expected, HIF-1α was detected by Western blot under normoxic conditions (FIG. 19, lane 1). […] These experiments have not been performed as yet in RCC4 cells with DBM alone or in RCC4 cells transfected with pVHL.

In test [9] the test system is HIF-1α. Particulars: LNCaP cells, ambient O2; cited from earlier work.
Test [10] relates to VEGF. To be noted: LNCaP cells, ambient O2; cited from earlier work.

In the case of `[Cd+2]` [Cd^2+], the “Loss of HIF-1α (no HIF-1α detected) when metal is combined with DBM” value (“Loss of HIF-1α (no HIF-1α detected)” for short) in test [1] is reported as “not observed”.

For the compound `[Ni+2]` [Ni^2+], the “Loss of HIF-1α (no HIF-1α detected)” value in test [1] is recorded as “not observed”.

Consider `[Zn+2]` [Zn^2+], for which, in [2], the “Zn^2+ concentration at which HIF-1αZ exhibits loss of exon 12” value is “above 100 μM”. Also, in test [3], the “HIF-1α levels by Western blot” value is recorded as “increased HIF-1α levels in a dose dependent manner” and the “HIF-1α by Western blot in the presence of proteosome inhibitor MG-132” value was “did not stabilize these other forms of HIF-1α”. Moreover, in test [3] (2 hours), the “Molecular weight of stabilized HIF-1α isoforms” value is given as “higher molecular weight than those induced by DBM” and the “HIF-1α by Western blot” value was “readily detected”. The “HIF-1α levels by Western blot” value in test [4] is “decreased the more rapidly migrating isoforms of HIF-1α”. Further, in [5], the “HIF-1α mRNA levels by semiquantitative PCR” value is listed as “not significantly different from baseline”.

Turning to “bevacizumab: humanized monoclonal antibody specific for VEGF”, in test [6], the Clinical responses result is on record as “Clinical responses have been observed”.

On to `[Fe+3]` [Fe^3+], for which the “Effect of metal added to DBM on HIF-1α levels by Western blot” value in test [7] is “decreased slower migrating isoforms of HIF-1α”; in test [4] (HT 144 cells, 2 hours under 1% O2, metal added together with DBM), “did not significantly alter the effect of DBM on HIF-1α levels”. Also, the “Loss of HIF-1α (no HIF-1α detected)” value in test [1] is “not observed”.

Take `CC(C)C[C@@H](C=O)NC(=O)[C@H](CC(C)C)NC(=O)[C@H](CC(C)C)NC(=O)OCc1ccccc1` [MG-132, reference compound] (Cbz-Leu-Leu-Leu-aldehyde): the “HIF-1α by Western blot” value in test [3] (2 hours) was “accumulation of a broad range of proteins that possibly represent ubiquitinated forms of HIF-1α”; in test [8], “Stabilization of HIF-1α was enhanced”.

For the compound `O=C(CC(=O)c1ccccc1)c1ccccc1` [DBM, 1,3-diphenylpropane-1,3-dione], in [9], the HIF-1α levels entry was “rapidly increase”. Also, the VEGF levels entry in [10] is given as “rapidly increase”. Besides, in test [3], the “HIF-1α levels by Western blot” value is listed as “significant increase in HIF-1α levels” and the “HIF-1α by Western blot in the presence of proteosome inhibitor MG-132” value is on record as “did not stabilize these other forms of HIF-1α”. Besides, in test [3] (2 hours), the “HIF-1α by Western blot” value is given as “readily detected”. In addition, the “HIF-1α levels by Western blot” value in [4] is on record as “significantly increased the levels of HIF-1α”. In addition, the “HIF-1α mRNA levels by semiquantitative PCR” value in test [5] is on record as “not significantly different from baseline”.

On to `[Co+2]` [Co^2+, reference compound], for which, in [9], the HIF-1α levels entry is on record as “rapidly increase”. Besides, in test [10], the VEGF levels result is given as “rapidly increase”. In addition, the “Loss of HIF-1α (no HIF-1α detected)” value in [1] is recorded as “not observed”.
